# Test system: CCRF-CEM/VCR-1000
# Assay: In vitro multi drug resistance (MDR) reversal inhibitory activity against CCRF-CEM/VCR-1000 cell line
# Assay type: functional, cell-based
# Settings: Homo sapiens
row,IC50 [nM],Structure (SMILES)
1,9070,CC(=O)c1cccc(OCC(O)CN2CCCCC2)c1 (stereo not given)
2,70,O=C(CCc1cccc2ccccc12)c1ccccc1OCC(O)CN1CCC(O)(c2ccccc2)CC1 (stereo not given)
3,530,O=C(CCc1ccccc1)c1cc(O)ccc1OCC(O)CN1CCN(Cc2ccccc2)CC1 (stereo not given)
4,120,COc1cccc(N2CCN(CC(O)COc3ccccc3C(=O)CCc3ccccc3)CC2)c1 (stereo not given)
5,1820,O=C(CCc1ccccc1)c1ccccc1OCC(O)CN1CCCC1 (stereo not given)
6,3840,CC(=O)c1ccccc1OCC(O)CN1CCN(c2ccc(F)cc2)CC1 (stereo not given)
7,8560,CCCNCCc1oc2ccccc2c1CCc1ccccc1
8,2640,CN(C)CC(O)COc1ccccc1C(=O)CCc1ccccc1 (stereo not given)
9,302000,CC(=O)c1ccc(OCC(O)CN2CCOCC2)cc1 (stereo not given)
10,910,CCN(CC)CC(O)COc1ccccc1C(=O)CCc1ccccc1 (stereo not given)
11,9540,OC(COc1ccccc1C(O)CCc1ccccc1)CN1CCOCC1 (stereo not given)
12,2830,CC(=O)c1ccccc1OCC(O)CN1CCC(O)(c2ccccc2)CC1 (stereo not given)
13,680,O=C(CCc1ccccc1)c1ccccc1OCC(O)CN1CCCCC1 (stereo not given)
14,230,COC(CCc1ccccc1)c1ccccc1OCC(O)CN1CCN(c2ccc(F)cc2)CC1 (stereo not given)
15,1800,COC(CCc1ccccc1)c1ccccc1OCC(O)CN1CCOCC1 (stereo not given)
16,2300,O=C(CCc1ccccc1)c1cc(O)ccc1OCC(O)CN1CCCCC1 (stereo not given)
17,439000,CCCNCC(O)c1oc2ccccc2c1CC (stereo not given)
18,340,O=C(CCc1ccccc1)c1ccccc1OCC(O)CNC1CCCCC1 (stereo not given)
19,6840,CCC(=O)c1ccccc1OCC(O)CN1CCCCC1 (stereo not given)
20,720,O=C(CCc1cccc2ccccc12)c1ccccc1OCC(O)CNCCC(c1ccccc1)c1ccccc1 (stereo not given)
21,11900,CC(=O)c1ccc(OCC(O)CN2CCN(c3ccc(F)cc3)CC2)cc1 (stereo not given)
22,880,COc1ccccc1N1CCN(CC(O)c2oc3ccccc3c2CCc2ccccc2)CC1 (stereo not given)
23,110,COc1ccccc1N1CCN(CC(O)COc2ccccc2C(=O)CCc2ccccc2)CC1 (stereo not given)

row,IC50 [nM],Structure (SMILES)
1,75900,CC(=O)c1ccc(OCC(O)CN2CCCCC2)cc1 (stereo not given)
2,58100,CCCNCC(O)c1oc2ccccc2c1CCc1ccccc1 (stereo not given)
3,670,OC(COc1ccccc1C(O)CCc1ccccc1)CN1CCN(c2ccc(F)cc2)CC1 (stereo not given)
4,720,O=C(CCc1ccccc1)c1ccccc1OCC(O)CNCCC(c1ccccc1)c1ccccc1 (stereo not given)
5,50,Cc1ccccc1N1CCN(CC(O)COc2ccccc2C(=O)CCc2ccccc2)CC1 (stereo not given)
6,140,O=C(CCc1ccccc1)c1ccccc1OCC(O)CN1CCN(c2ccc(F)cc2)CC1 (stereo not given)
7,490,CCCN(C)CC(O)COc1ccccc1C(=O)CCc1ccccc1 (stereo not given)
8,3020,CCCNCC(O)COc1ccc(O)cc1C(=O)CCc1ccccc1 (stereo not given) [5-HYDROXY PROPAFENONE]
9,118000,CC(=O)c1cccc(OCC(O)CN2CCOCC2)c1 (stereo not given)
10,1040,CC(C)N(CC(O)COc1ccc(O)cc1C(=O)CCc1ccccc1)C(C)C (stereo not given)
11,1020,O=C(CCc1ccccc1)c1ccccc1OCC(O)CNC(c1ccccc1)c1ccccc1 (stereo not given)
12,1120,O=C(CCc1ccccc1)c1cccc(OCC(O)CN2CCN(c3ccc(F)cc3)CC2)c1 (stereo not given)
13,11400,CC(=O)c1cccc(OCC(O)CN2CCN(c3ccc(F)cc3)CC2)c1 (stereo not given)
14,16600,COc1ccccc1N1CCN(CC(=O)c2oc3ccccc3c2CCc2ccccc2)CC1
15,390,O=C(CCc1ccccc1)c1cccc(OCC(O)CN2CCCCC2)c1 (stereo not given)
16,420,O=C(c1ccccc1)c1ccccc1OCC(O)CN1CCN(c2ccc(F)cc2)CC1 (stereo not given)
17,300,CCC(=O)c1ccccc1OCC(O)CN1CCC(O)(c2ccccc2)CC1 (stereo not given)
18,660,COC(CCc1ccccc1)c1ccccc1OCC(O)CN(C(C)C)C(C)C (stereo not given)
19,1340,OC(COc1ccccc1C(O)CCc1ccccc1)CN1CCCCC1 (stereo not given)
20,920,CC(C)N(CC(O)COc1ccc(C(=O)CCc2ccccc2)cc1)C(C)C (stereo not given)
21,2530,O=C(CCc1ccccc1)c1ccc(OCC(O)CN2CCN(c3ccc(F)cc3)CC2)cc1 (stereo not given)
22,310,CC(C)N(CC(O)COc1ccccc1C(=O)CCc1ccccc1)C(C)C (stereo not given)
23,180,COc1ccc(N2CCN(CC(O)COc3ccccc3C(=O)CCc3ccccc3)CC2)cc1 (stereo not given)

row,IC50 [nM],Structure (SMILES)
1,770,COC(CCc1ccccc1)c1ccccc1OCC(O)CN1CCCCC1 (stereo not given)
2,1080,CCCNCC(O)COc1ccccc1C(=O)CCc1ccccc1 (stereo not given) [PROPAFENONE]
3,760,O=C(CCc1ccccc1)c1ccccc1OCC(O)CNCc1ccccc1 (stereo not given)
4,6470,O=C(CCc1ccccc1)c1ccccc1OCC(O)CNc1ccccc1 (stereo not given)
5,110,CCCNCC(O)COc1ccc(OCc2ccccc2)cc1C(=O)CCc1ccccc1 (stereo not given)
6,750,COC(CCc1ccccc1)c1ccccc1OCC(O)CNCCC(c1ccccc1)c1ccccc1 (stereo not given)
7,1360,O=C(CCc1ccccc1)c1ccc(OCC(O)CN2CCCCC2)cc1 (stereo not given)
8,1740,CC(C)N(CC(O)COc1ccccc1C(O)CCc1ccccc1)C(C)C (stereo not given)
9,170,O=C(CCc1ccccc1)c1cc(OCc2ccccc2)ccc1OCC(O)CN1CCCCC1 (stereo not given)
10,380,O=C(CCc1ccccc1)c1ccccc1OCC(O)CN1CCN(Cc2ccccc2)CC1 (stereo not given)
11,20200,CC(C)NCCc1oc2ccccc2c1CCc1ccccc1
12,6860,O=C(CCc1ccccc1)c1ccc(OCC(O)CN2CCOCC2)cc1 (stereo not given)
13,170,O=C(CCc1cccc2ccccc12)c1ccccc1OCC(O)CN1CCCCC1 (stereo not given)
14,540,CC(C)N(CC(O)COc1ccccc1C(=O)CCc1cccc2ccccc12)C(C)C (stereo not given)
15,207000,CCC(=O)c1ccccc1OCC(O)CN1CCOCC1 (stereo not given)
16,2530,COC(=O)c1ccc(NCC(O)COc2ccccc2C(=O)CCc2ccccc2)cc1 (stereo not given)
17,80,CC(C)N(CC(O)COc1ccc(OCc2ccccc2)cc1C(=O)CCc1ccccc1)C(C)C (stereo not given)
18,120,O=C(CCc1ccccc1)c1cc(OCc2ccccc2)ccc1OCC(O)CN1CCN(Cc2ccccc2)CC1 (stereo not given)
19,210,O=C(CCc1ccccc1)c1ccccc1OCC(O)CN1CCN(c2ccccc2)CC1 (stereo not given)
20,3750,O=C(CCc1ccccc1)c1ccccc1OCC(O)CN1CCOCC1 (stereo not given)
21,680,O=C(CCc1cccc2ccccc12)c1ccccc1OCC(O)CN1CCOCC1 (stereo not given)
22,90,O=C(CCc1ccccc1)c1ccccc1OCC(O)CNCC(c1ccccc1)c1ccccc1 (stereo not given)

row,Structure (SMILES),IC50 [nM]
1,O=C(c1ccccc1)c1ccccc1OCC(O)CN1CCC(O)(c2ccccc2)CC1 (stereo not given),190
2,O=C(CCc1ccccc1)c1ccccc1OCC(O)CN1CCC(O)(c2ccccc2)CC1 (stereo not given),70
